Measurements reported in patent US7879885B2, “Thioalkeneamides as transketolase inhibitors” (Array Biopharma, Inc., priority 2004, dated 2011).

molecular target: T1, HCT116 TK (cellular transketolase, colon carcinoma HCT116) (Homo sapiens, UniProt P29401); test: Cellular assay: transketolase activity in lysates of treated HCT116 cells; format: cell-based; settings: colon carcinoma HCT116, thiamine-free DMEM, 48 hours treatment, mean
T1 construct: endogenous in cells; host or cells: HCT116 colon carcinoma cells
T1 sequence (P29401 1-623): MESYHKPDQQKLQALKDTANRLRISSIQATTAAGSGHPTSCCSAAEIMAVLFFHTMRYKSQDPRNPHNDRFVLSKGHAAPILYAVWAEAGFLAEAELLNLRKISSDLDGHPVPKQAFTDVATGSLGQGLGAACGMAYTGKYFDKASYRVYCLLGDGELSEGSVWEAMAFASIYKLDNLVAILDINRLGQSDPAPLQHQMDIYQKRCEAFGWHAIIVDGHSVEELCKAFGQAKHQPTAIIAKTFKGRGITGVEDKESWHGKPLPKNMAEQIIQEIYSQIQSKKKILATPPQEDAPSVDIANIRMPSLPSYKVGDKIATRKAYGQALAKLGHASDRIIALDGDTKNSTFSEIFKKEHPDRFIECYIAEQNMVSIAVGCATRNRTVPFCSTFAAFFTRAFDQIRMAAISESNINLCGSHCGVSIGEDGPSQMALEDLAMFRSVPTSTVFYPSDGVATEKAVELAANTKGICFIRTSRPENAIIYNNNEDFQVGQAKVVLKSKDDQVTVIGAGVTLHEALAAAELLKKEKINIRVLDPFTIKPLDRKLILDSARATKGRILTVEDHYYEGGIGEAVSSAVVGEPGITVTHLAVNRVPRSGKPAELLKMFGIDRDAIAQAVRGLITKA
Procedure: Log-phase cells were trypsinized, washed and resuspended in thiamine-free DMEM. Optimization of the initial cell counts was carried out for each cell line prior to IC50 measurements. […] Using this initial cell count, IC50 could be monitored for six days.
Media containing 8,000 cells (95 μl) were used to seed individual wells in a 96-well clear-bottom cell cultured-treated sterile plate. Inhibitor compounds were dissolved in 100% DMSO as 10 mM solutions. Serial dilutions were then made in 100% DMSO to make up a 100× stock, then diluted to 20× in double-deionized H2O (ddH2O). Twenty-four hours after seeding, 5 μl of 20× inhibitor compound stock solution was added to the cells so that the final concentration of DMSO was 1%. Media were changed after 24 hours. Forty-eight hours after inhibitor compound treatment, the plates were inverted to remove media and blotted on a paper towel. The plates were then either subjected to enzymatic reactions immediately or were frozen at −20° C. for future assays.
Lysis buffer (20 mM HEPES, pH 7.5, 1 mM EDTA, 0.2 g/l Triton X-100® and 0.2 g/L sodium deoxycholate, supplemented with 1 mM DTT and 1 mM PMSF just before use, 80 μl) were added to each well of the assay plate and allow cell lysis at RT with shaking. Then 15 ul of 5× assay buffer containing final concentrations of 50 mM HEPES, 40 mM KCl, 2.5 mM MgCl2, 5 mM NaArsenate, 1 mM NAD, 2 unit/ml glyceraldehyde-3-phosphate dehydrogenase (GAPDH) was added to the 80 ul of lysate. Reaction kinetics were monitored on a fluorescent plate reader to allow any possible background activity via GAPDH to burn out. Then 5 ul of substrate mix containing final concentrations of 0.5 mM ribose-5-phosphate and 0.5 mM xylulose-5-phosphate was added to initiate the reaction. Monitor reaction kinetics were monitored using a fluorescent plate reader and the slope of the initial linear range was recorded as the velocity of the reaction (FU/min). Enzymatic inhibition was expressed as percent of control wells that were not treated with compounds. The values (y) were plotted as function of the log concentration (x) and fitted to a sigmoidal dose-response curve with variable slopes that bears the equation: y=bottom+(top−bottom)/(1+10^((log EC50-x)*hillslope)).

Compound | IC50 [nM]
CCCSS/C(CCOP(=O)(OCC)OCC)=C(/C)N(C=O)Cc1ccc(C)nc1N | 1040
C/C(=C(\CCO)SSCC1CCCO1)N(C=O)Cc1ccc(C)nc1N (stereo not drawn) | 24
C/C(=C(\CCO)SSCCN1CCCC1)N(C=O)Cc1ccc(C)nc1N | 198
C/C(=C(\CCO)SSCCN1CCOCC1)N(C=O)Cc1ccc(C)nc1N | 70
CCCSS/C(CCO)=C(/C)N(C=O)Cc1ccc(Cl)nc1N | 7730
C/C(=C(\CCO)SCCN1CCCCC1)N(C=O)Cc1ccc(C)nc1N | 3700
C/C(=C(\CCO)SCCS(=O)(=O)c1ccccc1)N(C=O)Cc1ccc(C)nc1N | 1870
CC(=O)OCC/C(SCOC(=O)C(C)(C)C)=C(\C)N(C=O)Cc1ccc(C)nc1N | 25
CC(=O)OCC/C(SCOC(=O)N(C)C)=C(\C)N(C=O)Cc1ccc(C)nc1N | 26300
CC(=O)Nc1nc(C)ccc1CN(C=O)/C(C)=C(/CCOC(C)=O)SCOC(=O)N(C)C | 19400
CC(=O)Nc1nc(C)ccc1CN(C=O)/C(C)=C(/CCOC(C)=O)SCOC(=O)C(C)(C)C | 2480
CC(=O)OCC/C(SC(C)=O)=C(\C)N(C=O)Cc1ccc(C)nc1N | 50
CC(=O)OCC/C(SC(=O)c1ccccc1)=C(\C)N(C=O)Cc1ccc(C)nc1N | 108
C/C(=C(\CCOC(=O)c1ccccc1)SC(=O)c1ccccc1)N(C=O)Cc1ccc(C)nc1N | 28
CCOP(=O)(OCC)OCC/C(SC(=O)c1ccccc1)=C(\C)N(C=O)Cc1ccc(C)nc1N | 7160
C/C(=C1\CCOC(=O)S1)N(C=O)Cc1ccc(C)nc1N | 15

Further lines, results first:

IC50 [nM] | Compound
25 | CCCSS/C(CCO)=C(/C)N(C=O)Cc1ccc(C)nc1N
253 | CCC(C)SS/C(CCO)=C(/C)N(C=O)Cc1ccc(C)nc1N (stereo not drawn)
13 | C/C(=C(\CCO)SSCCO)N(C=O)Cc1ccc(C)nc1N
52 | C/C(=C(\CCO)SSCCC(=O)O)N(C=O)Cc1ccc(C)nc1N
102000 | Cc1ccc(CN(C=O)/C=C(/CCO)SS/C(=C\N(C=O)Cc2ccc(C)nc2N)CCO)c(N)n1
479 | C/C(=C(\CCO)SS/C(CCO)=C(/C)N(C=O)Cc1cccnc1N)N(C=O)Cc1cccnc1N
10 | C/C(=C(\CCO)SS/C(CCO)=C(/C)N(C=O)Cc1ccc(C)nc1N)N(C=O)Cc1ccc(C)nc1N
32 | CC(=O)N(Cc1ccc(C)nc1N)/C(C)=C(/CCO)SS/C(CCO)=C(/C)N(Cc1ccc(C)nc1N)C(C)=O
8 | CC(=O)OCC/C(SS/C(CCOC(C)=O)=C(/C)N(C=O)Cc1ccc(C)nc1N)=C(\C)N(C=O)Cc1ccc(C)nc1N
5.27 | C/C(=C(\CCO)SS/C(CCO)=C(/C)N(C=O)Cc1ccc(Cl)nc1N)N(C=O)Cc1ccc(Cl)nc1N
6460 | CCCCS/C(CCO)=C(/C)N(C=O)Cc1ccc(C)nc1N
116 | C/C(=C(\CCO)SCOC(=O)C(C)(C)C)N(C=O)Cc1ccc(C)nc1N
50 | CNC(=O)OCS/C(CCO)=C(/C)N(C=O)Cc1ccc(C)nc1N
507 | C/C(=C(\CCO)SCOC(=O)N(C)C)N(C=O)Cc1ccc(C)nc1N
